{"source": "patent US8796428B2", "about": "“Erk1/2 posphorylation site specific antibody” (Julius-Maximilians-Universitaet Wuerzburg, priority 2008, dated 2014)", "key": {"Mek": {"system": "Mek", "assay": "Determination of total inositol phosphates in HEK293-cells", "assay_type": "cell-based", "details": "carbachol 50 μM, 15 min", "method": "For determination of total inositol phosphates, the inventors transfected HEK293-cells with the indicated Erk2-constructs. After labeling of the cells with myo-[2-^3H]-inositol (1 mCi ml^−1) in inositol-free DMEM for 24 h, the inventors incubated the cells in incubation buffer (137 mM NaCl, 5 mM KCl, 10 mM LiCl, 1 mM CaCl2, 1 mM MgCl2, 10 mM HEPES, […]) for 15 min. The inventors extracted the inositol phosphates by addition of HClO4 (20%) before neutralizing the extract with KOH (1 M), removing the precipitates by centrifugation and applying the supernatants to anion exchange columns (DowexAG1×8, Biorad). The inventors then eluted total inositol phosphates by HCl (1 M) and measured the incorporated radioactivity by scintillation counting."}, "Mek1/2": {"system": "Mek1/2", "assay": "Co-immunoprecipitation of HA-Raf1 with Gβ in HEK293 cells", "assay_type": "cell-based", "details": "PD98059 50 μM, CCH, 5 min", "method": "The inventors prepared cell lysates and tissue lysates using lysis buffer (0.5% (v/v) NP-40, 150 mM NaCl, 25 mM Na4P2O7, 50 mM β-glycerol phosphate disodium salt, 2 mM EDTA, 2 mM EGTA, 25 mM Tris, pH 8.0, 10% (v/v) glycerol, 10 μg ml^−1 soybean trypsin inhibitor, 1 mM benzamidine, 1 mM PMSF, 50 mM NaF, 0.1 mM Na3VO4, 0.002% (w/v) NaN3) similarly as described (Lorenz et al., 2003). The inventors determined the interaction of Gβγ with endogenous Raf1, ERK1/2, HA-tagged Raf1 or HA-tagged Erk2 constructs by immunoprecipitation with the respective antibodies (as indicated in the figures). After immunoprecipitation, the inventors detected co-immunoprecipitated proteins in immunoblot analyses using the respective antibodies (as indicated in the figures). Before lysis, the inventors incubated adult or neonatal cardiomyocytes with or without agonist as indicated (angiotensinII, 100 nM, 5 min or 24 h; carbachol, 300 μM, 10 min or 36 h; neuregulin1-β1, 20 ng ml^−1, 10 min or 24 h; phenylephrine, 35 μM, 5 min or 48 h). […] The inventors prepared ventricular tissue from mouse hearts derived from male 129SvEv (FIG. 1g,h), FVB/N wild-type (WT) or Erk2^T188-transgenic mice (1188T, T188D, T188S, T188A) (FVB/N background) without or after transverse aortic constriction (TAC, see Fig. legends for the duration of TAC) or carbachol-infusion. Control animals were strain-, age- and gender-matched. […]"}, "[1]": {"system": "Gβγ interaction with Raf1 and Erk1/2", "assay": "Co-immunoprecipitation of Gβγ with Raf1 and Erk1/2 in neonatal rat cardiomyocytes", "assay_type": "cell-based", "details": "angiotensinII 100 nM 5 min, carbachol 300 μM 10 min, neuregulin 20 ng ml^−1 10 min", "method": "(§1) The inventors prepared cell lysates and tissue lysates using lysis buffer (0.5% (v/v) NP-40, 150 mM NaCl, 25 mM Na4P2O7, 50 mM β-glycerol phosphate disodium salt, 2 mM EDTA, 2 mM EGTA, 25 mM Tris, pH 8.0, 10% (v/v) glycerol, 10 μg ml^−1 soybean trypsin inhibitor, 1 mM benzamidine, 1 mM PMSF, 50 mM NaF, 0.1 mM Na3VO4, 0.002% (w/v) NaN3) similarly as described (Lorenz et al., 2003). The inventors determined the interaction of Gβγ with endogenous Raf1, ERK1/2, HA-tagged Raf1 or HA-tagged Erk2 constructs by immunoprecipitation with the respective antibodies (as indicated in the figures). After immunoprecipitation, the inventors detected co-immunoprecipitated proteins in immunoblot analyses using the respective antibodies (as indicated in the figures). Before lysis, the inventors incubated adult or neonatal cardiomyocytes with or without agonist as indicated (angiotensinII, 100 nM, 5 min or 24 h; carbachol, 300 μM, 10 min or 36 h; neuregulin1-β1, 20 ng ml^−1, 10 min or 24 h; phenylephrine, 35 μM, 5 min or 48 h). HEK293-cells were cultured in the absence or presence of carbachol (100 μM, 6 min) or UK14304 (1 μM, 10 min) before lysis. […]"}, "Erk1/2": {"system": "Erk1/2", "assay": "Immunoblot of Thr188-phosphorylation of Erk1/2 in cardiomyocytes", "assay_type": "cell-based", "details": "20 ng ml^−1", "method": "as §1, with “[…];” for “neuregulin1-β1, 20 ng ml^−1, 10 min or 24 h;”"}, "Gαq/11": {"system": "Gαq/11", "assay": "Detection of tyrosine phosphorylated Gαq/11 in neonatal cardiomyocytes", "assay_type": "cell-based, rat", "details": "20 ng ml^−1, 10 min", "method": "(§2) The inventors assessed phosphorylation of Gαq/11 by immunoprecipitation of Gαq/11 from lysates of neonatal cardiomyocytes without or with neuregulin1-β1 treatment (20 ng ml^−1, 10 min) using Gαq/11-specific antibodies (sc-392 AC, Santa Cruz) followed by detection of phosphotyrosine and immunoprecipitated Gαq/11 by immunoblot analyses. The inventors prepared the lysates as described above."}, "Src-kinase": {"system": "Src-kinase", "assay": "Neuregulin-induced hypertrophic effects in neonatal cardiomyocytes with Src-kinase inhibitor", "assay_type": "cell-based, rat", "method": "as §2\nThe inventors measured protein synthesis rates in isolated cardiomyocytes by [^3H]isoleucine incorporation. The inventors seeded transfected cardiomyocytes on 24-well plates in MEM supplemented with bromodeoxyuridine (25 mg l^−1), cobalamin (2 mg l^−1), NaHCO3 (350 mg l^−1), penicillin (100 U ml^−1), streptomycin (100 μg ml^−1) and 5% (v/v) fetal calf serum. After 24 h, the inventors reduced the serum concentration to 1% for 1 day followed by fasting in serum-free medium for 24-48 h. Thereafter, the inventors labeled the cells with [^3H]isoleucine (1 μCi ml^−1) for 24-48 h in the absence or presence of 100 nM angiotensinII, 300 μM carbachol, 10 ng ml^−1 neuregulin1-β1 or 35 μM (R)-(−)-phenylephrine as indicated. The inventors measured radioactivity incorporated into the TCA (trichloroacetic acid)-precipitable material by scintillation counting."}}}
{"compound": "COc1cccc(-c2cc(=O)c3ccccc3o2)c1N", "note": "[PD98059]", "values": [{"measurement": "carbachol-stimulated inositol phosphate signaling compared to control cells", "setting": "Mek", "result": "enhanced"}, {"measurement": "carbachol-stimulated interaction of HA-Raf1 with Gβ", "setting": "Mek1/2", "result": "suppressed"}]}
{"compound": "angiotensinII (DRVYIHPF; Angiotensin-2; UniProt P01019 25-32, looked up) [triggers hypertrophy via Gq-coupled AT1-receptors]", "values": [{"measurement": "co-immunoprecipitation of Gβγ with both Raf1 and Erk1/2", "setting": "[1]", "result": "markedly enhanced"}]}
{"compound": "neuregulin1-β1", "values": [{"measurement": "Thr188-phosphorylation of Erk1/2", "setting": "Erk1/2", "result": "induced"}, {"measurement": "co-immunoprecipitation of Gβγ with both Raf1 and Erk1/2", "setting": "[1]", "result": "permitted"}, {"measurement": "phosphorylation of Gαq/11 at Tyr356", "setting": "Gαq/11", "result": "triggered"}]}
{"compound": "CC(C)(C)n1nc(-c2ccc(Cl)cc2)c2c(N)ncnc21", "note": "[PP2]", "values": [{"measurement": "effect on neuregulin-induced effects (Gβγ co-immunoprecipitation, Gαq/11 phosphorylation, protein synthesis)", "setting": "Src-kinase", "result": "blocked"}]}
